Source: patent publication US5389613A, “Method of treating prostate adenocarcinoma, prostate benign hypertrophia and endometriosis” (Roussel Uclaf, priority 1979, dated 1995)
“Also recorded” adds a separate entry of the source.

Tests used:
[1] = test system: testicular steriodogenosis; assay: Inhibitory activity on testicular steroidogenesis in a patient with prostate cancer (plasmatic steroids); assay type: in vivo, human; settings: 500 μg intranasally twice a day
Text: The results are reported in the graphs of sheet 2 of the Figures.

[2] = test system: testicular steroidogensis; assay: Inhibitory activity against testicular steroidogenesis in men in good health (seric LH, FSH and steroids by radioimmunoassay); assay type: in vivo
Experimental: The said product was administered intranasally at a dose of 500 μg in a few drops of distilled water at 8 A.M. on the third day of the test. For 2 days prior to the treatment and for 6 days after the treatment, samples of blood were taken daily at 8 A.M., 3 P.M. and 10 P.M. On the day of administration of the LH-RH agonist, blood samples were taken at 11 A.M. and 6 P.M.
The seric concentrations of LH and FSH were measured by radioimmuno-logic dosages with double antibodies and the antibodies for measuring LH and FSH were furnished by the National Pituitary Agency of N.I.H. in Bethesda, Md. The seric concentrations of steroids was measured by radioimmuno-logic dosages in which one ml of serum was extracted with ether and the steroids were separated on a LH-20 column before measuring with radioimmuno-logic dosages. The radioimmuno-logic dosage results were determined by a program derived from model II of Rodbard et al [Second Karolinska Symposium on Research Methods in Reproductive Endroerinology, Diczfalusky Editor, Copenhague (1970), p. 79-103]. The statistical significance was determined by the "multiple level test" of Duncan-Kramer [Kramer, Biometrics, Vol 12 (1956), p. 307]. The results are shown in the graphs on sheet 1 of the Figures filed herewith.

ovarian steroidogenosis = assay: Inhibitory activity on ovarian steroidogenesis in women (seric LH, FSH, progesterone, estradiol); assay type: in vivo; settings: for reduction of seric levels of progesterone compared to the controls: typical subject (sheet 3), 500 μg intranasal at 8 A.M. and 5 P.M.
Experimental: The study was conducted for 6 consecutive cycles consisting of 2 pretreatment cycles, 2 treatment cycles and 2 post-treatment cycles. […] Daily blood samples were taken between 4 and 6 P.M. to measure seric levels of LH, FSH, progesterone and estradiol which were determined by radioimmuno-logic tests with double antibodies. The antibodies to measure LH and FSH were furnished by the National Pituitory Agency of N.I.H. of Bethesda, Md.
Estradiol and progesterone were measured with highly specific antibodies developed against 7-(0-carboxymethyl)-oxime of estradiol and 12-(0-carboxymethyl)-oxime of progesterone, respectively [3H] 17β-estradiol and ^125 I-progesterone -12-[0-carboxymethyl)-oxime] used as tracers. The serum was extracted with benzene and the steroids were separated with a LH-20 column before the determination. The radioimmunological results were exploited by the program derived from model II of Rodbard and Lewald as in Example 1 and the statistical significance was measured by the multiple level test of Ducan-Kramer of Example 1. The results are shown in the graphs of sheets 3 to 5 of the Figures.

[3] = intranasal 500 μg, men, 3rd day following administration

**Q.** Which “androgenic steroids (plasmatic)” value [1] does the source give for CCNC(=O)[C@@H]1CCCN1C(=O)[C@H](CCCNC(=N)N)NC(=O)[C@H](CC(C)C)NC(=O)[C@@H](COC(C)(C)C)NC(=O)[C@H](Cc1ccc(O)cc1)NC(=O)[C@H](CO)NC(=O)[C@H](Cc1c[nH]c2ccccc12)NC(=O)[C@H](Cc1c[nH]cn1)NC(=O)[C@@H]1CCC(=O)N1 [D Ser (Tbu)^6 of Gly^10 LH-RH ethylamide, [D Ser (Tbu)^6 des.Gly NH2^10] LH-RH ethylamide] here?
**A.** diminution

**Q.** What about the level of testosterone ([1]; two weeks of treatment) of the same compound?
**A.** stabilized at a very low level

**Q.** And the “effect on testicular steroidogenesis in man” value ([2]; intranasal 500 μg, men)?
**A.** inhibition of testicular steroidogenesis

**Q.** And the “seric concentration of 17-OH-progesterone relative to initial control values” [2, 3]?
**A.** 40%

**Q.** And the “seric concentration of testosterone relative to initial control values” [2, 3]?
**A.** 50%

**Q.** What about the “LH and FSH plasmatic levels” value ([2]; intranasal 500 μg, men, day of administration) of the same compound?
**A.** increase

**Q.** What about the “seric concentration of pregnenolone, 17-OH-pregnenolone, progesterone, 17-OH-progesterone, Δ5-androstene-3β,17β-diol and testosterone” value ([2]; intranasal 500 μg, men, on the day of treatment) of the same compound?
**A.** increased

**Q.** What about the “level of testosterone/steroids on the fourth day after administration” value ([2]; single intranasal dose of 500 μg, fourth day after administration) of the same compound?
**A.** returned to normal; also recorded: return to normal levels

**Q.** And the “duration of the drop of seric levels of testicular steroids (testosterone and its precursors)” value ([2]; single intranasal dose of 500 μg, human)?
**A.** 3 days

**Q.** And the “level of progesterone, pretreatment cycles as base of 100%” value (ovarian steroidogenosis; 12 cycles of post-treatment)?
**A.** 99%

**Q.** What about the “level of progesterone, pretreatment cycles as base of 100%” value (ovarian steroidogenosis; 12 cycles of treatment) of the same compound?
**A.** 46%

**Q.** And the “level of progesterone reduced as compared to the controls” value (ovarian steroidogenosis; 12 cycles of treatment (sheet 5), scale 13 to 127%)?
**A.** 46%

**Q.** And the “reduction of seric levels of progesterone compared to the controls” value (ovarian steroidogenosis; first cycle of treatment)?
**A.** 13%

**Q.** What about the “reduction of seric levels of progesterone compared to the controls” value (ovarian steroidogenosis; second cycle of treatment) of the same compound?
**A.** 34%
